Target: T1, human pancreatic lipase (Homo sapiens, UniProt P16233)
T1 construct: As a sample, pooled serum or a control sample (a control containing a pancreatic lipase) was used; from tissue; host or cells: human serum (pooled serum, normal samples, heparin-administered samples) and control sera
T1 sequence (P16233 17-465): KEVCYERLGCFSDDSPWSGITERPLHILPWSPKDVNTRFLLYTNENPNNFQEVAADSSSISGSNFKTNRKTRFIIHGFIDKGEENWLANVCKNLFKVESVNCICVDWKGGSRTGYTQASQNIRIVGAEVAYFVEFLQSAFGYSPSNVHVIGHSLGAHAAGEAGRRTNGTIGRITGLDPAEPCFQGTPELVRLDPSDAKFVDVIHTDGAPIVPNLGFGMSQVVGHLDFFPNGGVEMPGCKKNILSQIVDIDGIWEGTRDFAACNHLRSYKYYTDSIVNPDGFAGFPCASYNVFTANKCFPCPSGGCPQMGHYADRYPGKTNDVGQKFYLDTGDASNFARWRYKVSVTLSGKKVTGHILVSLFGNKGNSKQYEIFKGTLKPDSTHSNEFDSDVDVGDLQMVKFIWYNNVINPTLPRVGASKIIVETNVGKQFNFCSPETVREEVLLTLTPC
Assay: lipase activity measured in control, normal and heparin-administered samples with each reagent (1,2-dioleoyl glycerol, UV method; Liquitech Lipase Color II for verification)
Assay type: biochemical
Conditions: Recombinant pancreatic lp-containing serum

| lipase activity (Table 3) (pH 6.2) [U/L] | lipase activity (Table 3) (pH 6.4) [U/L] | lipase activity (Table 3) (pH 6.6) [U/L] | lipase activity (Table 3) (pH 6.9) [U/L] | lipase activity (Table 3) (pH 7.2) [U/L] | lipase activity (Table 3) (pH 7.4) [U/L] | lipase activity (Table 3) (pH 7.6) [U/L] | SMILES | lipase activity (Table 5) (pH 7.0) [U/L] | lipase activity (Table 5) (pH 7.95) [U/L] |
| --- | --- | --- | --- | --- | --- | --- | --- | --- | --- |
| – | – | – | – | – | – | – | C[C@H](CCC(=O)NCC(=O)[O-])[C@H]1CC[C@H]2[C@@H]3[C@H](O)C[C@@H]4C[C@H](O)CC[C@]4(C)[C@H]3CC[C@]12C.[Na+] [NaGCDCA, sodium glycochenodeoxycholate] | 166.1 | 72.4 |
| 180.8 | 184.7 | 211.9 | 233.1 | 229.8 | 217.3 | 168.8 | C[C@H](CCC(=O)NCCS(=O)(=O)[O-])[C@H]1CC[C@H]2[C@@H]3CC[C@@H]4C[C@H](O)CC[C@]4(C)[C@H]3C[C@H](O)[C@]12C.[Na+] [NaTDCA, sodium taurodeoxycholate] | – | – |
